For seven compounds, inhibition results are on record in ChEMBL document CHEMBL2424622, “Development of amino-pyrimidine inhibitors of c-Jun N-terminal kinase (JNK): kinase profiling guided optimization of a 1,2,3-benzotriazole lead” (Bioorg Med Chem Lett, 2013).

The target in test [1] is T1, Serine/threonine-protein kinase 3 (Homo sapiens) (UniProt Q13188).
T1 sequence (whole entry): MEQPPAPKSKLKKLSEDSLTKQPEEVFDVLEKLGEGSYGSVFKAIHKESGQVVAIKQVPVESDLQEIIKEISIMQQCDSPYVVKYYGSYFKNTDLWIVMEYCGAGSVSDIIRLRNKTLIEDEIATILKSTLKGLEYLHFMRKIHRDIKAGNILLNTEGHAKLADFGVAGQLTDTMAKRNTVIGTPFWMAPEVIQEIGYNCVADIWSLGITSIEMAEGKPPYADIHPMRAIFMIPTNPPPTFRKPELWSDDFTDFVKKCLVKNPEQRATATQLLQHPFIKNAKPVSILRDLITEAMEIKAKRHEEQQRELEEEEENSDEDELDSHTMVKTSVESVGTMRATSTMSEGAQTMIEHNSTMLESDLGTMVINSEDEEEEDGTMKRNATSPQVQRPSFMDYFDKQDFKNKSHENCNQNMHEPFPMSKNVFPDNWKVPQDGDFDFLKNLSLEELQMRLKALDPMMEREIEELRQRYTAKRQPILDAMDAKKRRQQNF
Nature of the test: Competitive binding affinity to STK3 (unknown origin) at 10 uM in presence of ATP relative to control.

Test [2] has as its target T2, Serine/threonine-protein kinase Nek1 (Homo sapiens) (UniProt Q96PY6).
T2 sequence (whole entry): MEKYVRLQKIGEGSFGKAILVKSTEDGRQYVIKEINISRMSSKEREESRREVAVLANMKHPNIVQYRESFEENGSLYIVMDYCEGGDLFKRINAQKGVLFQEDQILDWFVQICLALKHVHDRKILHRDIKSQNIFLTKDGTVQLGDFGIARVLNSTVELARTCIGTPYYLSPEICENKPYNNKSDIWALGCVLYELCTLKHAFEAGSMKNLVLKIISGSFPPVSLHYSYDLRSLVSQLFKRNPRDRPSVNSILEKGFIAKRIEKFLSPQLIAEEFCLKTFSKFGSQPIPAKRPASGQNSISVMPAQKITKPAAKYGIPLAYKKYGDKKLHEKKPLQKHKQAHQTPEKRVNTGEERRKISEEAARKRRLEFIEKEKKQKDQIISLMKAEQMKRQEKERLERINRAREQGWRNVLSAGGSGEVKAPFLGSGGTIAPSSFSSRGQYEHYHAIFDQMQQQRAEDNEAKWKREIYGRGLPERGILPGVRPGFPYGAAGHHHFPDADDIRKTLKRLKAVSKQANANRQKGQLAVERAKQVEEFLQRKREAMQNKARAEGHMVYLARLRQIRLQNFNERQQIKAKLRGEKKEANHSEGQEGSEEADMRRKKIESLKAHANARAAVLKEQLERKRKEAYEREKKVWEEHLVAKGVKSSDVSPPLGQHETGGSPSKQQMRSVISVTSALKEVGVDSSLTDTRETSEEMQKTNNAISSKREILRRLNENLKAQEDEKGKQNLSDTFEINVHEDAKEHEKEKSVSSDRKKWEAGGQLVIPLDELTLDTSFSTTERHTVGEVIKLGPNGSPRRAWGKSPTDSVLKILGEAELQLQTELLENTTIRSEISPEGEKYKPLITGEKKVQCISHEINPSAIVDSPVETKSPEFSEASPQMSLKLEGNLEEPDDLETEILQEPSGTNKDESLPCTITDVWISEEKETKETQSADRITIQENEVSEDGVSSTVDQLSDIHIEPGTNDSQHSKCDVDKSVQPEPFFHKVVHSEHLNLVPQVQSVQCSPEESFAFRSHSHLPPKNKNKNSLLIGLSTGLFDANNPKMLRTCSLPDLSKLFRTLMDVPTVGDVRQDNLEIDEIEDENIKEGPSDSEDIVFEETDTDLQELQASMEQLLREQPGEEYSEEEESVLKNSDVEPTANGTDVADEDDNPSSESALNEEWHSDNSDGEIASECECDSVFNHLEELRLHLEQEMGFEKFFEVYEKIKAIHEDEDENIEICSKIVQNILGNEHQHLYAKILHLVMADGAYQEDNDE
Nature of the test: Competitive binding affinity to NEK1 (unknown origin) at 10 uM in presence of ATP relative to control.

In test [3] the target is Serine/threonine-protein kinase SIK1 (Homo sapiens) (UniProt P57059). Nature of the test: Competitive binding affinity to SNF1LK (unknown origin) at 10 uM in presence of ATP relative to control.
The target in test [4] is T3, Serine/threonine-protein kinase RIO3 (Homo sapiens) (UniProt O14730).
T3 sequence (whole entry): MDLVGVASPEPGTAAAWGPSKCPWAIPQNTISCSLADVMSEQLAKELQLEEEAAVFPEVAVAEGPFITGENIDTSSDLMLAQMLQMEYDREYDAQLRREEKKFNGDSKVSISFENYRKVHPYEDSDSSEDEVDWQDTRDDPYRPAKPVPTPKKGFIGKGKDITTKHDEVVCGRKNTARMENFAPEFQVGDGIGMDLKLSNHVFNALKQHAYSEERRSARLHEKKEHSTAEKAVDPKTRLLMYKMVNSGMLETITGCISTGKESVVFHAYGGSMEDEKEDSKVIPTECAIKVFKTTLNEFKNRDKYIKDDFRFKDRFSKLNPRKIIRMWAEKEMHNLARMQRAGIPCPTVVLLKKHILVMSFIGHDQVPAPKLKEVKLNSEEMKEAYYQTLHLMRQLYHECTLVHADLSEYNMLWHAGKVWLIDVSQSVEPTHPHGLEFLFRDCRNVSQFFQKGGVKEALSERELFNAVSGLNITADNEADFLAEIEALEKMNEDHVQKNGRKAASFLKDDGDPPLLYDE
Nature of the test: Competitive binding affinity to RIOK3 (unknown origin) at 10 uM in presence of ATP relative to control.

Test [5] concerns the target TGF-beta receptor type-2 (Homo sapiens) (UniProt P37173). Nature of the test: Competitive binding affinity to TGFBR2 (unknown origin) at 10 uM in presence of ATP relative to control.
Test [6] addresses Mitogen-activated protein kinase kinase kinase 12 (DLK) (Homo sapiens) (UniProt Q12852). Nature of the test: Competitive binding affinity to DLK (unknown origin) at 10 uM in presence of ATP relative to control.
In test [7] the test system is Mast/stem cell growth factor receptor Kit (Homo sapiens), P10721 [V559D]. Nature of the test: Competitive binding affinity to KIT V559D mutant (unknown origin) at 10 uM in presence of ATP relative to control.

Each structure is given as a SMILES string.

Chain of Mast/stem cell growth factor receptor Kit (Homo sapiens), P10721 [V559D] (P10721 whole entry V559D): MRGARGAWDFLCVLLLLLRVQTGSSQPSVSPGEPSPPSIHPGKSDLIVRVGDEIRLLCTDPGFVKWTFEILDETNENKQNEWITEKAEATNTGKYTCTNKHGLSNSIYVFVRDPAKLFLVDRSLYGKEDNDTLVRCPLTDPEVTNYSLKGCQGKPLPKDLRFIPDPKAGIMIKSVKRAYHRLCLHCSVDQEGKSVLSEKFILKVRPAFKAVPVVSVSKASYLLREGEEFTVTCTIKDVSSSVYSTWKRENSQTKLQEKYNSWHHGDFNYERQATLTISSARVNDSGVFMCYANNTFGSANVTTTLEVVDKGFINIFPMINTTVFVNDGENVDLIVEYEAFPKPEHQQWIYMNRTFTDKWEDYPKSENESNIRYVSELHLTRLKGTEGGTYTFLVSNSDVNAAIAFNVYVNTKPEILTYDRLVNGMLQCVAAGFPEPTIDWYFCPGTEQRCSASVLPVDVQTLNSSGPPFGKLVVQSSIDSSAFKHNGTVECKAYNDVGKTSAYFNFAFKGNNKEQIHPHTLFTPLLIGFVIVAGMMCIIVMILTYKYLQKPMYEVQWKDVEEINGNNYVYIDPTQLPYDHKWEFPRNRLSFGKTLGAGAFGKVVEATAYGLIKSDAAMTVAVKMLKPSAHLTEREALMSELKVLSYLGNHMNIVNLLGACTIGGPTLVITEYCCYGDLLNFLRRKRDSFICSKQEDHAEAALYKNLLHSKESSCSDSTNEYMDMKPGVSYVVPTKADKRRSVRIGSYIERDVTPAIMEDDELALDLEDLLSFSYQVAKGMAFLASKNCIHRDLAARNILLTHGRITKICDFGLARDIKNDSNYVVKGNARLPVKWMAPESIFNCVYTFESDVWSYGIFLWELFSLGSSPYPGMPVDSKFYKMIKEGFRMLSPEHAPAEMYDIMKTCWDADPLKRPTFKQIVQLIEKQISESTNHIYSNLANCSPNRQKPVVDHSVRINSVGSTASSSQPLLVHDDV
Chain of Serine/threonine-protein kinase SIK1 (Homo sapiens) (P57059 whole entry): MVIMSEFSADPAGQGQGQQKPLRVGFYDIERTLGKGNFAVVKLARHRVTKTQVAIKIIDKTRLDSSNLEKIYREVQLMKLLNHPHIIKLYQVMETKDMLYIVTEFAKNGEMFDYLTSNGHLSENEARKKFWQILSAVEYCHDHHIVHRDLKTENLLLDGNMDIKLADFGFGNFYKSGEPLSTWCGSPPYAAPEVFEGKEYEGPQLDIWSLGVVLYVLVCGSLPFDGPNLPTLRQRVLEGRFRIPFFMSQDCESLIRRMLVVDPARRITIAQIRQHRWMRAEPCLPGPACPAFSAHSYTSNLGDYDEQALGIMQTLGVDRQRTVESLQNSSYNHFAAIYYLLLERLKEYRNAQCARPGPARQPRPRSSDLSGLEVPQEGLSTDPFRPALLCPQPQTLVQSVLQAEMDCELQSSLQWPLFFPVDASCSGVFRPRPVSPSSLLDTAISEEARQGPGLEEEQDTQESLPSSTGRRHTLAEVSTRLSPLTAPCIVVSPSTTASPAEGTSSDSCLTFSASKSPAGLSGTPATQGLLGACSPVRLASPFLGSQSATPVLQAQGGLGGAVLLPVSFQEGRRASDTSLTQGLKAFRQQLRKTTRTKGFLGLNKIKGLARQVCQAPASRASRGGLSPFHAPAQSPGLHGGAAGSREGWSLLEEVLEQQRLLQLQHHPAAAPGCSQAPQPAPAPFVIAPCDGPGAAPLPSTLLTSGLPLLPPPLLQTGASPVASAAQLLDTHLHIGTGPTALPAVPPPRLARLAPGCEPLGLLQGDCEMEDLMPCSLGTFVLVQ
Chain of Mitogen-activated protein kinase kinase kinase 12 (DLK) (Homo sapiens) (Q12852 whole entry, looked up): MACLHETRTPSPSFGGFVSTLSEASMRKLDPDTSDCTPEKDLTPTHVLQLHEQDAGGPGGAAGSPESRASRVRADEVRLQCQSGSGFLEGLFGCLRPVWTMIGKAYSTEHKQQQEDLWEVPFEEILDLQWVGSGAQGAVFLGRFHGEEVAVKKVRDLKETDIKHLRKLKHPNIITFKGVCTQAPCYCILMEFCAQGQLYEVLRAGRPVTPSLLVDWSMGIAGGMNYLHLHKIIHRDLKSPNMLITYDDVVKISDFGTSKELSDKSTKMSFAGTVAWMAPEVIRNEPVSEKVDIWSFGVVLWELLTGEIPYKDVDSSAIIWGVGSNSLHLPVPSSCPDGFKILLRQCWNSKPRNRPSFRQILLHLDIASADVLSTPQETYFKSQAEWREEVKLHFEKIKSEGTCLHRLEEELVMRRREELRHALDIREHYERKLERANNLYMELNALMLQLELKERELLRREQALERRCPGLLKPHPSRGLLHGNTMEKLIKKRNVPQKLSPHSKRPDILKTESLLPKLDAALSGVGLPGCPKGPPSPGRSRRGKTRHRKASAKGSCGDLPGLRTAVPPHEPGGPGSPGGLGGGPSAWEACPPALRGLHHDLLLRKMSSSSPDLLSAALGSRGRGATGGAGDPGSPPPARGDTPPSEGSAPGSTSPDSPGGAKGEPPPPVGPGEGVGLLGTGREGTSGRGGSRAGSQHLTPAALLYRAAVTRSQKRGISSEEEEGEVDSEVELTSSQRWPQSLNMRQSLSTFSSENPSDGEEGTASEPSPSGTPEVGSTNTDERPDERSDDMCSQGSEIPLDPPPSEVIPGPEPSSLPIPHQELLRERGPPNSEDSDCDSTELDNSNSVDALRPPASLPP
Chain of TGF-beta receptor type-2 (Homo sapiens) (P37173 whole entry): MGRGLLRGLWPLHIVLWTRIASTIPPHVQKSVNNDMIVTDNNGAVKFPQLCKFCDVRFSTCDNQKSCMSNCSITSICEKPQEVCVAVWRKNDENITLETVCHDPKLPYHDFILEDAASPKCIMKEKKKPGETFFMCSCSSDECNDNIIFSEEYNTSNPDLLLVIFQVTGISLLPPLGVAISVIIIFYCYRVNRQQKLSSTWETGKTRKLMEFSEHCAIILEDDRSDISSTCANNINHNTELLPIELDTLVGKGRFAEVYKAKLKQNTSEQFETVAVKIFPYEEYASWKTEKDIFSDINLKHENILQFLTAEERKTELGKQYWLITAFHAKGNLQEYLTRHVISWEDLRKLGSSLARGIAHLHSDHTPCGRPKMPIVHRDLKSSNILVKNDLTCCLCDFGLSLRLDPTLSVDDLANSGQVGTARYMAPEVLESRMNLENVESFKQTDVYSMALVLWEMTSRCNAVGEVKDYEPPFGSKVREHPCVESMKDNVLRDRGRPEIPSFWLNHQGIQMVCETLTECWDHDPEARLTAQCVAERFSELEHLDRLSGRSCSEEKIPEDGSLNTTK

In general, inhibition refers to the share of the control response that was lost under treatment. Regarding `O=C([C@H]1CC[C@H](Nc2nccc(-n3nnc4ccccc43)n2)CC1)N1CCOCC1`, in test [1], the inhibition came out at 86%.
In the case of `CS(=O)(=O)CCCOc1cccc2c1ccn2-c1ccnc(N[C@H]2CC[C@H](C(=O)N3CCC(O)CC3)CC2)n1`, the inhibition in test [2] was over 85%.
Consider `O[C@H]1CC[C@H](Nc2nccc(-n3ccc4ccccc43)n2)CC1`, for which the inhibition is 84% in test [2]; under 50% in test [3]; under 50% in test [4]; under 50% in test [5]; under 50% in test [6]; 73% in test [7].
Turning to `O[C@H]1CC[C@H](Nc2nccc(-n3ncc4ccccc43)n2)CC1`, the inhibition is 96% in test [2]; under 50% in test [3]; under 50% in test [4]; under 50% in test [5]; under 50% in test [6]; 92% in test [7].
As to `O[C@H]1CC[C@H](Nc2nccc(-c3n[nH]c4ccccc34)n2)CC1`, the values for the inhibition in test [1] and in test [7] were 94% and 99%, respectively.
Regarding `N[C@H]1CC[C@H](Nc2nccc(-n3nnc4ccccc43)n2)CC1`, the inhibition in test [1] worked out at 96%.
`O[C@H]1CC[C@H](Nc2nccc(-n3nnc4ccccc43)n2)CC1`: the inhibition in test [2] is 98%; in test [3], under 50%; in test [4] it was under 50%; in test [5], 96%; in test [6], under 50%; in test [7], 91%.
